Results taken from US20240199640A1, “NEGATIVE ALLOSTERIC MODULATORS OF METABOTROPIC GLUTAMATE RECEPTOR 2” (priority 2021, published 2024).
Values joined by “and” are separate entries in the source; they are usually repeats but may differ in a detail not shown here. Equal values may be shown once.

Target: T1, rat mGlu2 (Rattus norvegicus, UniProt P31421)
T1 construct: expressed in transfected cells; host or cells: HEK-293
Test: mGlu GIRK cell-based thallium flux assay, rat mGlu2
Settings: rat mGlu2 GIRK IC50 (nM), HEK-293 cells co-expressing rat mGlu2 and GIRK; EC80 glutamate; Tl flux
Method: The day before the assay, GIRK cells co-expressing human mGlu3, human or rat mGlu2, as described above, were plated in black-walled, clear-bottomed, amine-coated 384-well plates at a density of 15,000 cells/20 μL/well in the assay medium (glutamine-depleted basal DMEM supplemented with 10% dialyzed FBS, 20 mM HEPES, 1 mM sodium pyruvate). Cells were incubated at 37° C. in the presence of 5% CO2. […] Cells were washed with assay buffer using a microplate washer to remove the medium, resulting in 20 μL of buffer remaining in each well. Immediately, 20 μL of 2× Thallos dye solution was added to cells, and incubated for one hour at 25° C. During the cell dye loading incubation period, a 10-point concentration serial dilution of compound was created from a 10 mM DMSO compound stock by performing a 1:3 serial dilution in DMSO using the Bravo liquid handler. The 2× compound plate was generated by transferring 0.24 μL of the diluted compound in each well to a daughter plate using an Echo acoustic liquid handler.
After dye-loading, cell plates were washed with assay buffer to remove excess extracellular dye using a microplate washer, resulting in 20 μL of buffer remaining in each well. After a ten-minute equilibration period, cell, compound and agonist plates were loaded into a Hamamatsu μCell kinetic imaging plate reader equipped with liquid handler to monitor fluorescence changes at 480 nm excitation and 540 nm emission settings. Briefly, after collection of baseline fluorescence, 20 μL of compound was added and incubated for two minutes and twenty seconds. This is immediately followed by adding 10 μL of glutamate-thallium buffer to the wells containing compound. The fluorescent signal was monitored an additional 2.5 minutes after the glutamate addition. Multiple reference wells containing no compound received either no glutamate (for a baseline reference), […] glutamate, or ECmax glutamate (for normalization to maximum response). Fluorescence was measured throughout the experiment at a frequency of 1 measurement per every 2 seconds before the glutamate addition and a frequency of 1 measurement per every 1 second after the glutamate addition. Each compound concentration series occurred one time in each plate, and replicates from two or three plates were used in each experimental run. Thallium solutions were handled and disposed of according to guidelines from the Vanderbilt University Chemical Safety department.
Data were normalized using a static ratio function (F/F0) by dividing every fluorescent measurement by the initial fluorescent value for the corresponding well. The increase in signal resulting from the glutamate/thallium addition of the second add was measured by determining the slope from 3 seconds to 13 seconds after the addition. The average of all baseline slopes (no compound, no glutamate) was determined and this value was subtracted from all other slope values. The average of all ECmax slopes was determined and this value was used to normalize the baseline-corrected slopes to a percent max value (% Emax). The % Emax values for each compound series were plotted versus the log of the concentration and fit to a 4-parameter logistical equation with no fixed parameters.
Potency is reported as the IC50 resulting from the curve fit.

T1 sequence (P31421 19-872): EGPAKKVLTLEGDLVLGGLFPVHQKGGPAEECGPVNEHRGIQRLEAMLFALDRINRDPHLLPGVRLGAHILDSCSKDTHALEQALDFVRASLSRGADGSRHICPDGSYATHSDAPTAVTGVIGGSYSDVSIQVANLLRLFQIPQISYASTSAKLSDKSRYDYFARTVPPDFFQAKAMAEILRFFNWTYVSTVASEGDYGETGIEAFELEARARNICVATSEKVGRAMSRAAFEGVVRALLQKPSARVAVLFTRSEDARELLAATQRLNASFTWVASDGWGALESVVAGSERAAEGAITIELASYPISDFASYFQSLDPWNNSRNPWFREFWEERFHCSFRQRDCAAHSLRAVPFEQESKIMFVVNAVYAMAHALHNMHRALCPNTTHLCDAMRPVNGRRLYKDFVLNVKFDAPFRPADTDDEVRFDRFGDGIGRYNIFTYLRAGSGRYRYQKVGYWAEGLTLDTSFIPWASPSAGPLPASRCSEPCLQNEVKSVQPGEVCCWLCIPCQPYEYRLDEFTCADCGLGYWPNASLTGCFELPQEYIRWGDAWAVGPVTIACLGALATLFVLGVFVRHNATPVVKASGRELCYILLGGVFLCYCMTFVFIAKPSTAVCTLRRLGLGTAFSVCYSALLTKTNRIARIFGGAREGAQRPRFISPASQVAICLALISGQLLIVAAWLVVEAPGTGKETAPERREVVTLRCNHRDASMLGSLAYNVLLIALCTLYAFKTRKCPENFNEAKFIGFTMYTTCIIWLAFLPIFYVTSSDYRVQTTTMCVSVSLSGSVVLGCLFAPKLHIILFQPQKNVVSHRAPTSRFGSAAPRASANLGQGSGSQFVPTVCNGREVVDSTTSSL

Compound	IC50
O=C1NCc2cc(Oc3ccncc3)c(-c3ccc(F)cc3F)cc21 [Compound 32, 6-(2,4-difluorophenyl)-5-(pyridin-4-yloxy)isoindolin-1-one]	151 nM
O=C1NCc2cc(OC3CN(c4ccncc4)C3)c(-c3ccc(F)cc3)cc21 [Compound 33, 6-(4-fluorophenyl)-5-((1-(pyridin-4-yl)azetidin-3-yl)oxy)isoindolin-1-one]	> 10000 nM
CC(Oc1cc2c(cc1-c1ccc(OC(F)F)cc1F)C(=O)NC2)c1ccncc1 (stereo not drawn) [Compound 37, 6-(4-(difluoromethoxy)-2-fluorophenyl)-5-(1-(pyridin-4-yl)ethoxy)isoindolin-1-one]	781 nM
Cc1csc(C(C)Oc2cc3c(cc2-c2ccc(F)cc2)C(=O)NC3)n1 (stereo not drawn) [Compound 29, 6-(4-fluorophenyl)-5-(1-(4-methylthiazol-2-yl)ethoxy)isoindolin-1-one]	1690 nM
Cn1ccc(COc2cc3c(cc2-c2cnn(C(F)F)c2)C(=O)NC3)n1 [Compound 50, 6-(1-(difluoromethyl)-1H-pyrazol-4-yl)-5-((1-methyl-1H-pyrazol-3-yl)methoxy)isoindolin-1-one]	2360 nM
Cc1nn(C)cc1-c1cc2c(cc1OCc1ccn(C)n1)CNC2=O [Compound 45, 6-(1,3-dimethyl-1H-pyrazol-4-yl)-5-((1-methyl-1H-pyrazol-3-yl)methoxy)isoindolin-1-one]	3820 nM
CC(Oc1cc2c(cc1-c1ccc(N3CCOCC3)cc1)C(=O)NC2)c1ccncc1 (stereo not drawn) [Compound 38, 6-(4-morpholinophenyl)-5-(1-(pyridin-4-yl)ethoxy)isoindolin-1-one]	> 10000 nM
Cn1ccc(COc2cc3c(cc2-c2ccc4c(c2)CCO4)C(=O)NC3)n1 [Compound 51, 6-(2,3-dihydrobenzofuran-5-yl)-5-((1-methyl-1H-pyrazol-3-yl)methoxy)isoindolin-1-one]	965 nM
[2H]C1([2H])NC(=O)c2cc(-c3ccc(F)cc3)c(OC([2H])([2H])c3cnn(C)c3)cc21 [Compound 34, 6-(4-fluorophenyl)-5-((1-methyl-1H-pyrazol-4-yl)methoxy-d2)isoindolin-1-one-3,3-d2]	836 nM
Cn1ccc(COc2cc3c(cc2-c2ccc4c(c2)OCCO4)C(=O)NC3)n1 [Compound 56, 6-(2,3-dihydrobenzo[b][1,4]dioxin-6-yl)-5-((1-methyl-1H-pyrazol-3-yl)methoxy)isoindolin-1-one]	2930 nM and 7540 nM
Cn1ccc(COc2cc3c(cc2-c2cc(F)nc(F)c2)C(=O)NC3)n1 [Compound 41, 6-(2,6-difluoropyridin-4-yl)-5-((1-methyl-1H-pyrazol-3-yl)methoxy)isoindolin-1-one]	> 10000 nM
O=C1NCc2cc(OC3CN(Cc4ccc5ncccc5c4)C3)c(-c3ccc(F)cc3)cc21 [Compound 83, 6-(4-fluorophenyl)-5-((1-(quinolin-6-ylmethyl)azetidin-3-yl)oxy)isoindolin-1-one]	5000 nM
Cn1cc(CN2CC(Oc3cc4c(cc3-c3ccc(F)cc3)C(=O)NC4)C2)cn1 [Compound 78, 6-(4-fluorophenyl)-5-((1-((1-methyl-1H-pyrazol-4-yl)methyl)azetidin-3-yl)oxy)isoindolin-1-one]	> 10000 nM
O=C1NCc2cc(OC3CN(Cc4ccc(C(F)(F)F)o4)C3)c(-c3ccc(F)cc3)cc21 [Compound 81, 6-(4-fluorophenyl)-5-((1-((5-(trifluoromethyl)furan-2-yl)methyl)azetidin-3-yl)oxy)isoindolin-1-one]	1670 nM
Cc1c(S(=O)(=O)N2CC(Oc3cc4c(cc3-c3ccc(F)cc3)C(=O)NC4)C2)cnn1C(F)F [Compound 73, 5-((1-((1-(difluoromethyl)-5-methyl-1H-pyrazol-4-yl)sulfonyl)azetidin-3-yl)oxy)-6-(4-fluorophenyl)isoindolin-1-one]	8040 nM
[2H]C([2H])(Oc1cc2c(cc1-c1cc(F)cc(C#N)c1)C(=O)NC2)c1ccc(C)nc1 [Compound 59, 3-fluoro-5-(6-((6-methylpyridin-3-yl)methoxy-d2)-3-oxoisoindolin-5-yl)benzonitrile]	> 10000 nM
Cn1ccc(COc2cc3c(cc2-c2ccc4ncsc4c2)C(=O)NC3)n1 [Compound 52, 6-(benzo[d]thiazol-6-yl)-5-((1-methyl-1H-pyrazol-3-yl)methoxy)isoindolin-1-one]	675 nM

Compound	IC50
[2H]C([2H])(Oc1cc2c(cc1-c1ccc(F)cc1)C(=O)NC2)c1cnn(C)c1 [Compound 30, 6-(4-fluorophenyl)-5-((1-methyl-1H-pyrazol-4-yl)methoxy-d2)isoindolin-1-one]	418 nM
Cc1nc(CN2CC(Oc3cc4c(cc3-c3ccc(F)cc3)C(=O)NC4)C2)cs1 [Compound 79, 6-(4-fluorophenyl)-5-((1-((2-methylthiazol-4-yl)methyl)azetidin-3-yl)oxy)isoindolin-1-one]	2540 nM
Cc1cc(-c2cc3c(cc2OCc2ccn(C)n2)CNC3=O)n(C)n1 [Compound 48, 6-(1,3-dimethyl-1H-pyrazol-5-yl)-5-((1-methyl-1H-pyrazol-3-yl)methoxy)isoindolin-1-one]	> 10000 nM
Cn1ccc(COc2cc3c(cc2-c2ccc(F)nc2)C(=O)NC3)n1 [Compound 44, 6-(6-fluoropyridin-3-yl)-5-((1-methyl-1H-pyrazol-3-yl)methoxy)isoindolin-1-one]	1840 nM
O=C1NCc2cc(OC3CN(C(=O)c4cccc(C(F)(F)F)c4)C3)c(-c3ccc(F)cc3)cc21 [Compound 66, 6-(4-fluorophenyl)-5-((1-(3-(trifluoromethyl)benzoyl)azetidin-3-yl)oxy)isoindolin-1-one]	7540 nM and > 30000 nM
Cc1cc(S(=O)(=O)N2CC(Oc3cc4c(cc3-c3ccc(F)cc3)C(=O)NC4)C2)nn1C [Compound 77, 5-((1-((1,5-dimethyl-1H-pyrazol-3-yl)sulfonyl)azetidin-3-yl)oxy)-6-(4-fluorophenyl)isoindolin-1-one]	2670 nM
Cc1c(-c2cc3c(cc2OCc2ccn(C)n2)CNC3=O)cc(C#N)n1C [Compound 49, 1,5-dimethyl-4-(6-((1-methyl-1H-pyrazol-3-yl)methoxy)-3-oxoisoindolin-5-yl)-1H-pyrrole-2-carbonitrile]	> 10000 nM
Cn1cc(-c2cc3c(cc2OCc2ccn(C)n2)CNC3=O)cn1 [Compound 46, 5-((1-methyl-1H-pyrazol-3-yl)methoxy)-6-(1-methyl-1H-pyrazol-4-yl)isoindolin-1-one]	> 10000 nM
CC(Oc1cc2c(cc1-c1ccc(F)cc1F)C(=O)NC2)c1ccncc1 (stereo not drawn) [Compound 28, 6-(2,4-difluorophenyl)-5-(1-(pyridin-4-yl)ethoxy)isoindolin-1-one]	305 nM
Cc1nocc1S(=O)(=O)N1CC(Oc2cc3c(cc2-c2ccc(F)cc2)C(=O)NC3)C1 [Compound 74, 6-(4-fluorophenyl)-5-((1-((3-methylisoxazol-4-yl)sulfonyl)azetidin-3-yl)oxy)isoindolin-1-one]	> 10000 nM
O=C1NCc2cc(OC3CN(S(=O)(=O)c4ccc5cnccc5c4)C3)c(-c3ccc(F)cc3)cc21 [Compound 75, 6-(4-fluorophenyl)-5-((1-(isoquinolin-6-ylsulfonyl)azetidin-3-yl)oxy)isoindolin-1-one]	> 10000 nM
CC(Oc1cc2c(cc1-c1ccc(F)cc1)C(=O)NC2)c1ccncc1 (stereo not drawn) [Compound 27, 6-(4-fluorophenyl)-5-(1-(pyridin-4-yl)ethoxy)isoindolin-1-one]	321 nM
Cc1csc(C)c1S(=O)(=O)N1CC(Oc2cc3c(cc2-c2ccc(F)cc2)C(=O)NC3)C1 [Compound 76, 5-((1-((2,4-dimethylthiophen-3-yl)sulfonyl)azetidin-3-yl)oxy)-6-(4-fluorophenyl)isoindolin-1-one]	1000 nM
N#Cc1cccc(C(=O)N2CC(Oc3cc4c(cc3-c3ccc(F)cc3)C(=O)NC4)C2)c1 [Compound 70, 3-(3-((6-(4-fluorophenyl)-1-oxoisoindolin-5-yl)oxy)azetidine-1-carbonyl)benzonitrile]	4780 nM and > 30000 nM
Cn1ccc(COc2cc3c(cc2-c2ccc(OC(F)F)cc2F)C(=O)NC3)n1 [Compound 42, 6-(4-(difluoromethoxy)-2-fluorophenyl)-5-((1-methyl-1H-pyrazol-3-yl)methoxy)isoindolin-1-one]	393 nM
O=C1NCc2cc(OC3CN(C(=O)c4ccno4)C3)c(-c3ccc(F)cc3)cc21 [Compound 69, 6-(4-fluorophenyl)-5-((1-(isoxazole-5-carbonyl)azetidin-3-yl)oxy)isoindolin-1-one]	> 10000 nM
